Test results: patent US5798373A, “Tri-substituted phenyl derivatives useful as PDE IV inhibitors” (Celltech Therapeutics, Limited, priority 1995, dated 1998)
Counter-ions that a name gives are not always drawn.

Key:
[1] = target: T1, Recombinant Human PDE IVA (Homo sapiens, UniProt P27815); test: Isolated recombinant human PDE IVA enzyme inhibition; format: biochemical; conditions: 0.1 μM [^3 H]-cAMP, pH 7.5, 30° C.
T1 construct: made in house; host or cells: yeast (inducible vector)
Protocol: Isolated Recombinant Human PDE IVA Enzyme
The enzymes were purified to isoenzyme homogeneity using standard chromatographic techniques.
Phosphodiesterase activity was assayed as follows. The reaction was conducted in 150 μl of standard mixture containing (final concentrations): 50 mM 2-[[tris(hydroxymethyl)methyl]amino]-1-ethanesulphonic acid (TES) --NaOH buffer (pH 7.5), 10 mM MgCl2, 0.1 μM [^3 H]-cAMP and vehicle or various concentrations of the test compounds. The reaction was initiated by addition of enzyme and conducted at 30° C. for between 5 to 30 min. The reaction was terminated by addition of 50 μl 2% trifluoroacetic acid containing [^14 C]-5'AMP for determining recovery of the product. An aliquot of the sample was then applied to a column of neutral alumina and the [^3 H]-cAMP eluted with 10 ml 0.1 TES-NaOH buffer (pH8). The [^3 H]-5'-AMP product was eluted with 2 ml 2M NaOH into a scintillation vial containing 10 ml of scintillation cocktail. Recovery of [^3 H]-5'AMP was determined using the [^14 C]-5'AMP and all assays were conducted in the linear range of the reaction. Results were expressed as IC50 values.

[2] = Rat hepatocyte metabolism (metabolic stability); format: in vitro ADME; conditions: rat hepatocytes, after 3 h, mass spectroscopy; read-out: percentage of compound remaining
Protocol: (§1) 2. Rat Hepatocyte Metabolism
(§2) The quantity of compound remaining after a fixed period of time was then determined using mass spectroscopy.
(§3) Thus in one such test the compound of Example 1 was compared with a related compound particularly described in International Patent Specification No. WO94/14742 in which the 4-fluorobenzylurea group is replaced by a hydrogen atom (i.e. (L^1)n Ar' above is a hydrogen atom). After 3 h the percentage of each compound remaining was: […]

rat hepatocytes = test: Rat hepatocyte metabolism (metabolic stability); format: in vitro ADME; conditions: after 3 h
Protocol: as §1, §2, §3

T1 sequence (P27815 whole entry): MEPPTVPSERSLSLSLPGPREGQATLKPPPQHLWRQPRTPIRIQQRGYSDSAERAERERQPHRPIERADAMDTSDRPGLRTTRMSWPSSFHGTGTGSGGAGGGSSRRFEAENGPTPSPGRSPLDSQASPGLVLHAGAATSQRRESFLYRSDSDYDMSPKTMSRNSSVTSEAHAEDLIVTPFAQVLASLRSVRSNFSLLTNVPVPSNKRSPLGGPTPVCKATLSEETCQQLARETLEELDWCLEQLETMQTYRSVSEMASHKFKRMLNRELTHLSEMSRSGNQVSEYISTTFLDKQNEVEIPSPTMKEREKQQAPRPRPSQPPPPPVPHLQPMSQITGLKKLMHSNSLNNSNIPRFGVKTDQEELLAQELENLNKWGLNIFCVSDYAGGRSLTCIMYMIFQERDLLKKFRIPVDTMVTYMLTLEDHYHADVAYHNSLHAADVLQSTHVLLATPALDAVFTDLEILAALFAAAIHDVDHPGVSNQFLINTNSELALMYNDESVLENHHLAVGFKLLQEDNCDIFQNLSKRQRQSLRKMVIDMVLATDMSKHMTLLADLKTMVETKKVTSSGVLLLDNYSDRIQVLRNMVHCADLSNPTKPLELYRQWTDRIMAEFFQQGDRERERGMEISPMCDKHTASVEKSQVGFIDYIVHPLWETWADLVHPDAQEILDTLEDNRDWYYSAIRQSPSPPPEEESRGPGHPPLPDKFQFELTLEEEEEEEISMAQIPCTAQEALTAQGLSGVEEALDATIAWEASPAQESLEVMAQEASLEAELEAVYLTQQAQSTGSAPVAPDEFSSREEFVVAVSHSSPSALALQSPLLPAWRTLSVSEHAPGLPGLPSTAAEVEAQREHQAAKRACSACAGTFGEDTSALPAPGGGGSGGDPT

Row | SMILES | IC50 [1] [nM] | remaining at 3 h [2] [%] | percentage of compound remaining (rat hepatocytes; mass spectroscopy, listed as compound of the invention, 180 min) | extent of metabolism (in words) (rat hepatocytes)
1 | COc1ccc([C@H](Cc2ccncc2)c2ccc(NC(=O)NCc3ccc(F)cc3)cc2)cc1OC1CCCC1 [Example 1, (R)-N-[4-{1-(3-cyclopentyloxy-4-methoxyphenyl)-2-(4-pyridyl)ethyl}-phenyl]-N'-(4-fluorobenzyl) urea] | 23 | > 80 | over 80% | 
2 | COc1ccc([C@H](Cc2ccncc2)c2ccc(NS(=O)(=O)Cc3ccccc3)cc2)cc1OC1CCCC1 [Example 2, (R)-4-{2-(3-cyclopentyloxy-4-methoxyphenyl)-2-[4-(benzylsulphonylamino)phenyl]ethyl}pyridine hydrochloride] | 7.5 |  |  | 
3 | COc1ccc([C@H](Cc2ccncc2)c2ccccc2)cc1OC1CCCC1 [WO94/14732 comparison compound, reference compound] |  | 6 |  | extensively metabolised
